In patent US9492805B2, “Initiated chemical vapor deposition of vinyl polymers for the encapsulation of particles” (Massachusetts Institute of Technology, priority 2005, dated 2016):

Assay: Release of ibuprofen from pellets of 25 μm microcrystals in pH buffers, light absorption at 220 nm
Type: physicochemical
Settings: pH 7.4
Text: In another example, 25 μm ibuprofen microcrystals were encapsulated with the iCVD P(MAA-EDMA) copolymer and likewise ibuprofen release was tracked over time at different pH conditions. FIG. 26a gives the time release profiles, comparing uncoated and coated ibuprofen at pH 1.2 and 7.4. […] This enhanced protection in acids would be important for drugs such as ibuprofen and other non-steroidal anti-inflammatory drugs that are known to cause stomach ulceration and hemorrhaging, leading to mucosal damage and severe blood loss with acute dosage and prolonged administration. [S. E. Gabriel, L. Jaakkimainen, C. Bombardier, Ann. Intern. Med. 1991, 115, 787-796; and [ M. M. Wolfe, D. R. Lichtenstein, G. Singh, N. Engl. J. Med. 1999, 340, 1888-1899.] The increase in drug dissolution and activity by using finer drug particles would likely exacerbate this problem. […]
Release Measurements. […] For fluorescein, release was monitored at 490 nm, comparing fluorescein layered on silicon substrates that were exposed or encapsulated with an iCVD P(MAA-EDMA) coating. For ibuprofen, 25 μm ibuprofen microcrystals (DuPont), that were bare or encapsulated with an iCVD P(MAA-EDMA) coating, were compressed into pellets and their release monitored at 220 nm. Absorption was measured on a Varian Cary 6000i.

release of ibuprofen at near neutral pH: relatively fast
Structure (SMILES): CC(C)Cc1ccc(C(C)C(=O)O)cc1 (stereo not shown) [ibuprofen]
